# Data: BindingDB's records for doi:10.1016/j.bmcl.2006.06.076 (Fujisawa Pharmaceutical, 2006)
# Columns and labels:
# [1] = Agonist activity at rat PGI2 receptor assessed as inhibition of ADP-induced platelet aggregation
# [2] = Agonist activity at human PGI2 receptor assessed as inhibition of ADP-induced platelet aggregation
SMILES,IC50 [1],IC50 [2]
"O=C(O)COc1cccc(C[C@@H]2CCCC[C@@H]2c2nc(-c3ccccc3)c(-c3ccccc3)o2)c1 [sodium 2-(3-(((1S,2S)-2-(4,5-diphenyloxazol-2-yl)cyclohexyl)methyl)phenoxy)acetate]",,115 nM
"O=C(O)COc1cccc(Cc2ccccc2-c2nc(-c3ccccc3)c(-c3ccccc3)o2)c1 [sodium 2-(3-(2-(4,5-diphenyloxazol-2-yl)benzyl)phenoxy)acetate]",,930 nM
"O=C(O)COc1cccc(C[C@@H]2CCCC[C@H]2c2nc(-c3ccccc3)c(-c3ccccc3)o2)c1 [sodium 2-(3-(((1S,2R)-2-(4,5-diphenyloxazol-2-yl)cyclohexyl)methyl)phenoxy)acetate]",,114 nM
"O=C(O)COc1cccc(CC2=C(c3nc(-c4ccccc4)c(-c4ccccc4)o3)CCCC2)c1 [sodium 2-(3-((2-(4,5-diphenyloxazol-2-yl)cyclohex-1-enyl)methyl)phenoxy)acetate]",,533 nM

# Stronger by IC50 [2], values ahead:
IC50 [1],IC50 [2],SMILES
1200 nM,60 nM,"O=C(O)COc1cccc(CC2CCCC=C2c2nc(-c3ccccc3)c(-c3ccccc3)o2)c1 [Sodium; {3-[(R)-2-(4,5-diphenyl-oxazol-2-yl)-cyclohex-2-enylmethyl]-phenoxy}-acetate]"
> 10000 nM,58 nM,"O=C(O)COc1cccc(CN2CCC[C@H]2c2nc(-c3ccccc3)c(-c3ccccc3)o2)c1 [sodium (S)-2-(3-((2-(4,5-diphenyloxazol-2-yl)pyrrolidin-1-yl)methyl)phenoxy)acetate]"
,53 nM,"O=C(O)COc1cccc(C[C@@H]2CCC[C@@H]2c2nc(-c3ccccc3)c(-c3ccccc3)o2)c1 [sodium 2-(3-(((1S,2S)-2-(4,5-diphenyloxazol-2-yl)cyclopentyl)methyl)phenoxy)acetate]"
700 nM,48 nM,"O=C(O)COc1cccc(CN2CCC[C@@H]2c2nc(-c3ccccc3)c(-c3ccccc3)o2)c1 [sodium (R)-2-(3-((2-(4,5-diphenyloxazol-2-yl)pyrrolidin-1-yl)methyl)phenoxy)acetate]"
,39 nM,"O=C(O)COc1cccc(C[C@@H]2CCC[C@H]2c2nc(-c3ccccc3)c(-c3ccccc3)o2)c1 [sodium 2-(3-(((1S,2R)-2-(4,5-diphenyloxazol-2-yl)cyclopentyl)methyl)phenoxy)acetate]"
